Measurements taken from BigSolDB 2.1.

CC(C)OC(=O)[C@H](C)N[P@](=O)(OC[C@H]1O[C@@H](n2ccc(=O)[nH]c2=O)[C@](C)(F)[C@@H]1O)Oc1ccccc1
solubility (mole fraction)
Conditions | 278.15 K | 283.15 K | 288.15 K | 293.15 K | 298.15 K | 303.15 K | 308.15 K | 313.15 K | 318.15 K
in acetone | 0.0275 | 0.0343 | 0.0435 | 0.0538 | 0.066 | 0.0796 | 0.0951 | 0.113 | 0.134
in acetonitrile | 0.00484 | 0.00629 | 0.00812 | 0.0101 | 0.0127 | 0.0156 | 0.019 | 0.0234 | 0.0286
in cyclohexane | – | 6.09e-07 | 9.4e-07 | 1.44e-06 | 2.09e-06 | 3.05e-06 | 4.33e-06 | 6.11e-06 | 8.66e-06
in ethanol | 0.022 | 0.0274 | 0.0342 | 0.0416 | 0.0505 | 0.0599 | 0.0712 | 0.0842 | 0.0997
in ethyl acetate | 0.00263 | 0.00362 | 0.00486 | 0.00641 | 0.0084 | 0.0108 | 0.0139 | 0.0178 | 0.0228
in n-butanol | 0.00935 | 0.0116 | 0.0144 | 0.0182 | 0.0225 | 0.0278 | 0.034 | 0.0413 | 0.0501
in toluene | 4.46e-06 | 7.43e-06 | 1.1e-05 | 1.75e-05 | 2.67e-05 | 4.02e-05 | 6.15e-05 | 9.44e-05 | 0.000144
in water | 1.18e-05 | 1.85e-05 | 2.59e-05 | 3.65e-05 | 5.05e-05 | 7.02e-05 | 9.6e-05 | 0.000131 | 0.00017
